Measured values from the supplement of paper PMC8612539.
In brackets after ≈: the same amount, converted by molar mass.

Test system: Histophilus somni
Test: minimum inhibitory concentration (MIC)
Description: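 Broth microdilution MIC (Sensititre BOPO7F bovine plate, CLSI methods) of 19 antimicrobials against field isolates of P. multocida, M. haemolytica, H. somni (deep nasopharyngeal swabs) and E. coli, Enterococcus spp. (rectal swabs) from weaned dairy heifers. Incubation 16-24 h at 35 C. MIC is the lowest concentration preventing visible growth. Values with <= or > lie at the tested range limits. Trimethoprim-sulfamethoxazole is given as the trimethoprim component of a 1:19 mixture.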

CC[C@H]1OC(=O)C[C@@H](O)[C@H](C)[C@@H](O[C@@H]2O[C@H](C)[C@@H](O)[C@H](N(C)C)[C@H]2O)[C@@H](CCN2C[C@H](C)C[C@H](C)C2)C[C@@H](C)C(=O)/C=C/C(C)=C/[C@@H]1CO[C@@H]1O[C@H](C)[C@@H](O)[C@@H](OC)[C@H]1OC [Tilmicosin]
Conditions | minimum inhibitory concentration [µg/mL]
isolate (source animal id): 3 | 8 (≈ 9.2 µM)
isolate (source animal id): 4 | ≤ 2
isolate (source animal id): 7 | ≤ 2
isolate (source animal id): 14 | ≤ 2
isolate (source animal id): 15 | 8 (≈ 9.2 µM)
isolate (source animal id): 17 | ≤ 2
isolate (source animal id): 18 | 4 (≈ 4.6 µM)
isolate (source animal id): 20 | ≤ 2
isolate (source animal id): 23 | 4 (≈ 4.6 µM)
isolate (source animal id): 45 | 8 (≈ 9.2 µM)
isolate (source animal id): 53 | 8 (≈ 9.2 µM)
isolate (source animal id): 83 | 4 (≈ 4.6 µM)
isolate (source animal id): 88 | 4 (≈ 4.6 µM)
isolate (source animal id): 92 | 8 (≈ 9.2 µM)
isolate (source animal id): 93 | 4 (≈ 4.6 µM)
isolate (source animal id): 99 | 4 (≈ 4.6 µM)
isolate (source animal id): 100 | 8 (≈ 9.2 µM)
isolate (source animal id): 105 | 4 (≈ 4.6 µM)
isolate (source animal id): 107 | 4 (≈ 4.6 µM)
isolate (source animal id): 108 | 4 (≈ 4.6 µM)
isolate (source animal id): 109 | 8 (≈ 9.2 µM)
isolate (source animal id): 110 | 8 (≈ 9.2 µM)
isolate (source animal id): 117 | 4 (≈ 4.6 µM)
isolate (source animal id): 121 | 4 (≈ 4.6 µM)
isolate (source animal id): 123 | 8 (≈ 9.2 µM)
isolate (source animal id): 124 | 4 (≈ 4.6 µM)
isolate (source animal id): 127 | 4 (≈ 4.6 µM)
isolate (source animal id): 128 | 4 (≈ 4.6 µM)
isolate (source animal id): 130 | 8 (≈ 9.2 µM)
isolate (source animal id): 132 | 4 (≈ 4.6 µM)
isolate (source animal id): 135 | 4 (≈ 4.6 µM)
isolate (source animal id): 140 | 4 (≈ 4.6 µM)
isolate (source animal id): 141 | 4 (≈ 4.6 µM)
isolate (source animal id): 142 | > 16
isolate (source animal id): 144 | 8 (≈ 9.2 µM)
isolate (source animal id): 146 | 8 (≈ 9.2 µM)
isolate (source animal id): 147 | > 16
isolate (source animal id): 151 | 4 (≈ 4.6 µM)
isolate (source animal id): 153 | 16 (≈ 18.4 µM)
isolate (source animal id): 154 | > 16
isolate (source animal id): 156 | > 16
isolate (source animal id): 157 | 16 (≈ 18.4 µM)
isolate (source animal id): 176 | 16 (≈ 18.4 µM)
isolate (source animal id): 183 | 8 (≈ 9.2 µM)
isolate (source animal id): 186 | 8 (≈ 9.2 µM)
isolate (source animal id): 196 | 8 (≈ 9.2 µM)
isolate (source animal id): 198 | 8 (≈ 9.2 µM)
isolate (source animal id): 200 | 8 (≈ 9.2 µM)
isolate (source animal id): 206 | 8 (≈ 9.2 µM)
isolate (source animal id): 208 | 8 (≈ 9.2 µM)
isolate (source animal id): 210 | 4 (≈ 4.6 µM)
isolate (source animal id): 212 | ≤ 2
isolate (source animal id): 215 | 8 (≈ 9.2 µM)
isolate (source animal id): 216 | 16 (≈ 18.4 µM)
isolate (source animal id): 218 | 8 (≈ 9.2 µM)
isolate (source animal id): 219 | 8 (≈ 9.2 µM)
isolate (source animal id): 224 | 8 (≈ 9.2 µM)
isolate (source animal id): 228 | 8 (≈ 9.2 µM)
isolate (source animal id): 230 | 16 (≈ 18.4 µM)
isolate (source animal id): 233 | 4 (≈ 4.6 µM)
isolate (source animal id): 238 | ≤ 2
isolate (source animal id): 239 | 8 (≈ 9.2 µM)
isolate (source animal id): 241 | 8 (≈ 9.2 µM)
isolate (source animal id): 242 | 8 (≈ 9.2 µM)
isolate (source animal id): 243 | 8 (≈ 9.2 µM)
isolate (source animal id): 245 | ≤ 2
isolate (source animal id): 246 | 8 (≈ 9.2 µM)
isolate (source animal id): 247 | 16 (≈ 18.4 µM)
isolate (source animal id): 248 | ≤ 2
isolate (source animal id): 250 | 8 (≈ 9.2 µM)
isolate (source animal id): 251 | 8 (≈ 9.2 µM)
isolate (source animal id): 252 | 16 (≈ 18.4 µM)
isolate (source animal id): 254 | 8 (≈ 9.2 µM)
isolate (source animal id): 258 | 4 (≈ 4.6 µM)
isolate (source animal id): 259 | 4 (≈ 4.6 µM)
isolate (source animal id): 262 | ≤ 2
isolate (source animal id): 264 | ≤ 2
isolate (source animal id): 265 | ≤ 2
isolate (source animal id): 266 | 4 (≈ 4.6 µM)
isolate (source animal id): 267 | 4 (≈ 4.6 µM)
isolate (source animal id): 269 | 4 (≈ 4.6 µM)
isolate (source animal id): 271 | 4 (≈ 4.6 µM)
isolate (source animal id): 272 | ≤ 2
isolate (source animal id): 274 | ≤ 2
isolate (source animal id): 276 | ≤ 2
isolate (source animal id): 278 | ≤ 2
isolate (source animal id): 280 | ≤ 2
isolate (source animal id): 281 | 8 (≈ 9.2 µM)
isolate (source animal id): 283 | 4 (≈ 4.6 µM)
isolate (source animal id): 288 | 8 (≈ 9.2 µM)
isolate (source animal id): 291 | 4 (≈ 4.6 µM)
isolate (source animal id): 292 | 8 (≈ 9.2 µM)
isolate (source animal id): 296 | 4 (≈ 4.6 µM)
isolate (source animal id): 306 | 8 (≈ 9.2 µM)
isolate (source animal id): 336 | 8 (≈ 9.2 µM)
isolate (source animal id): 337 | 8 (≈ 9.2 µM)
isolate (source animal id): 341 | 8 (≈ 9.2 µM)

CCCNC[C@]1(O)[C@H](C)O[C@@H](O[C@H]2[C@H](C)[C@@H](O[C@@H]3O[C@H](C)C[C@H](N(C)C)[C@H]3O)[C@](C)(O)C[C@@H](C)CN[C@H](C)[C@@H](O)[C@](C)(O)[C@@H](CC)OC(=O)[C@@H]2C)C[C@@]1(C)OC [Tulathromycin]
Conditions | minimum inhibitory concentration [µg/mL]
isolate (source animal id): 3 | ≤ 8
isolate (source animal id): 4 | ≤ 8
isolate (source animal id): 7 | ≤ 8
isolate (source animal id): 14 | ≤ 8
isolate (source animal id): 15 | ≤ 8
isolate (source animal id): 17 | ≤ 8
isolate (source animal id): 18 | ≤ 8
isolate (source animal id): 20 | ≤ 8
isolate (source animal id): 23 | ≤ 8
isolate (source animal id): 45 | ≤ 8
isolate (source animal id): 53 | ≤ 8
isolate (source animal id): 83 | ≤ 8
isolate (source animal id): 88 | ≤ 8
isolate (source animal id): 92 | 16 (≈ 19.8 µM)
isolate (source animal id): 93 | ≤ 8
isolate (source animal id): 99 | ≤ 8
isolate (source animal id): 100 | 16 (≈ 19.8 µM)
isolate (source animal id): 105 | ≤ 8
isolate (source animal id): 107 | ≤ 8
isolate (source animal id): 108 | ≤ 8
isolate (source animal id): 109 | ≤ 8
isolate (source animal id): 110 | 16 (≈ 19.8 µM)
isolate (source animal id): 117 | ≤ 8
isolate (source animal id): 121 | ≤ 8
isolate (source animal id): 123 | ≤ 8
isolate (source animal id): 124 | ≤ 8
isolate (source animal id): 127 | ≤ 8
isolate (source animal id): 128 | ≤ 8
isolate (source animal id): 130 | 16 (≈ 19.8 µM)
isolate (source animal id): 132 | ≤ 8
isolate (source animal id): 135 | ≤ 8
isolate (source animal id): 140 | ≤ 8
isolate (source animal id): 141 | ≤ 8
isolate (source animal id): 142 | > 64
isolate (source animal id): 144 | ≤ 8
isolate (source animal id): 146 | 16 (≈ 19.8 µM)
isolate (source animal id): 147 | > 64
isolate (source animal id): 151 | ≤ 8
isolate (source animal id): 153 | 16 (≈ 19.8 µM)
isolate (source animal id): 154 | > 64
isolate (source animal id): 156 | > 64
isolate (source animal id): 157 | 16 (≈ 19.8 µM)
isolate (source animal id): 176 | ≤ 8
isolate (source animal id): 183 | ≤ 8
isolate (source animal id): 186 | ≤ 8
isolate (source animal id): 196 | ≤ 8
isolate (source animal id): 198 | ≤ 8
isolate (source animal id): 200 | 16 (≈ 19.8 µM)
isolate (source animal id): 206 | ≤ 8
isolate (source animal id): 208 | ≤ 8
isolate (source animal id): 210 | ≤ 8
isolate (source animal id): 212 | ≤ 8
isolate (source animal id): 215 | ≤ 8
isolate (source animal id): 216 | 16 (≈ 19.8 µM)
isolate (source animal id): 218 | ≤ 8
isolate (source animal id): 219 | ≤ 8
isolate (source animal id): 224 | ≤ 8
isolate (source animal id): 228 | ≤ 8
isolate (source animal id): 230 | ≤ 8
isolate (source animal id): 233 | ≤ 8
isolate (source animal id): 238 | ≤ 8
isolate (source animal id): 239 | ≤ 8
isolate (source animal id): 241 | ≤ 8
isolate (source animal id): 242 | ≤ 8
isolate (source animal id): 243 | ≤ 8
isolate (source animal id): 245 | ≤ 8
isolate (source animal id): 246 | ≤ 8
isolate (source animal id): 247 | ≤ 8
isolate (source animal id): 248 | ≤ 8
isolate (source animal id): 250 | ≤ 8
isolate (source animal id): 251 | ≤ 8
isolate (source animal id): 252 | ≤ 8
isolate (source animal id): 254 | ≤ 8
isolate (source animal id): 258 | ≤ 8
isolate (source animal id): 259 | ≤ 8
isolate (source animal id): 262 | ≤ 8
isolate (source animal id): 264 | ≤ 8
isolate (source animal id): 265 | ≤ 8
isolate (source animal id): 266 | ≤ 8
isolate (source animal id): 267 | ≤ 8
isolate (source animal id): 269 | ≤ 8
isolate (source animal id): 271 | ≤ 8
isolate (source animal id): 272 | ≤ 8
isolate (source animal id): 274 | ≤ 8
isolate (source animal id): 276 | ≤ 8
isolate (source animal id): 278 | ≤ 8
isolate (source animal id): 280 | ≤ 8
isolate (source animal id): 281 | ≤ 8
isolate (source animal id): 283 | ≤ 8
isolate (source animal id): 288 | ≤ 8
isolate (source animal id): 291 | ≤ 8
isolate (source animal id): 292 | ≤ 8
isolate (source animal id): 296 | ≤ 8
isolate (source animal id): 306 | ≤ 8
isolate (source animal id): 336 | 16 (≈ 19.8 µM)
isolate (source animal id): 337 | 16 (≈ 19.8 µM)
isolate (source animal id): 341 | ≤ 8
